Values joined by “and” are separate entries in the source; they are usually repeats but may differ in a detail not shown here. Identical values can stand only once.
Legend:
[1] = test system: SKI-DLBCL-1 xenografts; experiment: TUNEL immunohistochemical staining for apoptosis in xenografts; format: in vivo, mice; settings: day 21; four doses on days 0, 3, 7 and 10; MTX 40 mg/kg, PDX 60 mg/kg
Method: Immunohistochemical staining for apoptosis as measured by terminal deoxynucleotide transferase-mediated nick end-labeling (TUNEL) was performed on SKI-DLBCL-1 xenografts from mice sacrificed at day 21 following initiation of antifolate therapy. Mice received four doses of saline, MTX (40 mg/kg) or PDX (60 mg/kg) on days 0, 3, 7 and 10.

[2] = test system: human HT (diffuse large B cell) non-Hodgkin's lymphoma xenografts; experiment: Subcutaneous lymphoma xenograft treatment; format: in vivo
From the text: In order to study the effects of PDX on lymphoma growth in vivo, subcutaneous transplantation models in NOD/SCID mice were generated using three established human lymphoma cell line representative of aggressive transformed FL (RL) and de novo extranodal DLBCL (HT; SKI-DLCL-1) histologies. Six to eight week old non-obsese diabetic severe combined immunodeficient (NOD/SCID) mice (Jackson Laboratories, Bar Harbor, Me.) were sub-lethally irradiated with […] from a gamma source and inoculated with 10×10^6 lymphoma cells via a subcutaneous route. When tumor volumes approached 100 mm^3, mice were divided into three groups, averaging 3-8 mice per group. Mice were treated with normal saline or the maximum tolerated dose (MTD) of MTX (40 mg/kg) or PDX (60 mg/kg) via an intraperitoneal route twice weekly for two weeks (four total doses). […] (Sirotnak, et al., Cancer Chemother. Pharmacol. 12: 26-30 (1984); Sirotnak et al., Cancer Chemother. Pharmacol. 42: 313-318 (1998).
Engraftment rates in this experiment ranged from 80 to 90%. Palpable tumors formed under the skin approximately 7-10 days after inoculation and were readily measurable with calipers. Mice with subcutaneous lymphoma growths survived an average of 40-50 days after inoculation.

[3] = test system: subcutaneous tumors of SKI; experiment: Preliminary combination xenograft experiment; format: in vivo, irradiated NOD-SCID mice; settings: 60 mg/kg; regrowth by day 44 after initial response
Method: Given the experience that SKI-DLCL-1 is the most PDX resistant line in the panel, it was selected for these in vivo synergy experiments. […] All animals were treated with the maximum tolerated dose (MTD) of each drug, save the combination studies.

[4] = cited from earlier work
[5] = test system: SKI-DLCL-1 (Diffuse large B Cell) cell line; experiment: Growth inhibition in vitro (XTT or Alamar blue); format: cell-based, human
Method: A PDX preparation prepared in accordance with Example 1 and an MTX preparation were tested for cytotoxicity against a panel of five human lymphoma cell lines. Experiments were performed as described previously. (Sirotnak et al., Cancer Chemother. […] Colorimetric dye (XTT or Alamar blue) was added for an addition period of time (XTT dye, 6 hours, Alamar blue, 24 hours). Each plate was then read on an automated plate reader at 590 nm. The percentage of inhibition was calculated as growth of cells exposed to drug divided by growth of controls (cells incubated with media only). […] Experiments were repeated as lest three times.

[6] = test system: caspase 3 in SKI-DLCL-1 cells; experiment: Caspase 3 activation (EnzChek Caspase-3 Assay Kit #2, Z-DEVD-R110 cleavage); format: cell-based, human
Method: Ara-C, PDX and Gem in combined and scheduled exposures.
To further evaluate the activity of PDX and Gem combinations, Caspase activity was tested by EnzChek® Caspase-3 Assay Kit #2 (Molecular Probes) based upon the fluorometric detection of caspase-dependent Z-DEVD-R110 cleavage (rhodamine 110 bis-[N-CBZ-L-aspartyl-L-glutamyl-L-valyl-L-aspartic acid amide], a non-fluorescent bisamide), which, via a two step process, first yields the monoamide product (weakly fluorescent) and then the fluorescent product R110 (rhodamine 110, strongly fluorescent). Detection was performed on a Fluoroskan Ascent FL fluorescent plate reader (Thermo Lab Systems, Helsinki, Finland) according to the manufacturer's guidelines.

[7] = MTX 40 mg/kg, PDX 60 mg/kg ip twice weekly for two weeks

C#CCC(Cc1cnc2nc(N)nc(N)c2n1)c1ccc(C(=O)N[C@@H](CCC(=O)O)C(=O)O)cc1 (some centres unmarked) [PDX, 10-Propargyl-10-deazaminopterin]
apoptotic cells in tumor tissue (TUNEL) [1]: high level of apoptotic cells | Complete Regression (no/total) ([2]; MTX 40 mg/kg, PDX 60 mg/kg): 8 of 9 and 8/9 | complete tumor regression (% of mice) ([2]; MTX 40 mg/kg, PDX 60 mg/kg): 89% | Avg change in Tumor Volume (mm^3 ± SE) [2, 7]: −95 ± 0.8 mm^3 | Weight Change (%) [2, 7]: −8.9% | Avg Tumor Diameter (mm ± SE) ([2]; MTX 40 mg/kg, PDX 60 mg/kg, at the nadir of tumor regression): 0.5 mm and 0.5 ± 0.3 mm | Tumor Regression (%) ([2]; PDX 60 mg/kg, average tumor regression): 99% | tumor volume as % of initial tumor volume [3]: 739% | maximum tolerated dose (MTD) ([4]; intraperitoneal, twice weekly for two weeks): 60 mg/kg | toxic deaths at the MTD ([4]; nude mice): no toxic deaths | IC50 ([5]; SKI-DLCL-1, 5 day continuous drug exposure): 5.1 ± 0.1 nM | EC50 in SKI-DLCL-1 relative to other B-cell lymphoma cell lines ([5]; roughly, fold greater): 2 to 3 fold | Fluorescence at 485ex/527em ([6]; 1 nM, control 134.3): 265.5 | Difference from control ([6]; fluorescence at 485ex/527em): 131.2

— patent publication US7939530B2, “Treatment of lymphoma using 10-propargyl-10-deazaaminopterin and gemcitabine” (Sloan-Kettering Institute for Cancer Research, priority 2004, dated 2011)
